Test results published in patent publication US20080194574A1, “Pyrazine Derivatives As Effective Compounds Against Infectious Diseases” (AXXIMA PHARMACEUTICALS AG, priority 2003, published 2008).
Read-outs that look alike come from different tables or passages of the source.

Molecular target: T1, viral kinase pUL-97 (Human cytomegalovirus, UniProt P16788)
T1 construct: The pUL-97 gene was cloned into a baculovirus vector; GST (glutathione S-transferase) (N); made in house; host or cells: Sf9 insect cells, baculovirus
Experiment: UL97 kinase assay on Immobilon plate
Format: biochemical
Conditions: inhibition of UL 97 kinase activity, read-out: Activity Class [A, B, C]
Procedure, shortened: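 GST-pUL97 from baculovirus-infected Sf9 cells phosphorylated myelin basic protein with ATP (3 μM in the added assay buffer) and γ-[33P]ATP in Tris-HCl pH 7.5 buffer with MnCl2 and DTT. Reaction ran 1 h at 30 °C with graded compound concentrations and was stopped with EDTA. 33P incorporation was measured by scintillation after filter capture and phosphoric acid washes.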

[1] = class by IC50 / % inhibition at 10 or 100 μM
[2] = class by IC50 / % inhibition at 10 μM or 100 μM

T1 sequence (P16788 whole entry): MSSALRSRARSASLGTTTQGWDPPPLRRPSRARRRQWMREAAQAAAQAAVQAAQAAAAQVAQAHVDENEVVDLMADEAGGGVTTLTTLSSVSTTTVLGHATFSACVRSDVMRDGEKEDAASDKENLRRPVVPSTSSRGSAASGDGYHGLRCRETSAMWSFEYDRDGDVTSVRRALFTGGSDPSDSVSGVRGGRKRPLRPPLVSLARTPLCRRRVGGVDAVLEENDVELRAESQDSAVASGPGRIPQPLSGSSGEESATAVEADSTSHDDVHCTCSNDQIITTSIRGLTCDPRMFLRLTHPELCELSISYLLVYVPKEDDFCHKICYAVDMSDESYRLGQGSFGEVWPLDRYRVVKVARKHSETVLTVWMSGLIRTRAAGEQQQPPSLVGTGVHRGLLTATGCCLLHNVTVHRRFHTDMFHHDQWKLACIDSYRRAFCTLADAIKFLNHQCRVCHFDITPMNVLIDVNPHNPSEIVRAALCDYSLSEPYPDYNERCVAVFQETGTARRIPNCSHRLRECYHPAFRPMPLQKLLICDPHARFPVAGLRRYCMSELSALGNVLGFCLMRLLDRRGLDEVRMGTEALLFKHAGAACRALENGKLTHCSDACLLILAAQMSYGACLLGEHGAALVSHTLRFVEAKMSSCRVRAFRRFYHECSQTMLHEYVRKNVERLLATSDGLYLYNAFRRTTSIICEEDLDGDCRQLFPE

| IC50 [1] [µM] | IC50 [2] [µM] | Structure (SMILES) |
| --- | --- | --- |
| 10 to 100 | – | COc1ccc(N2CCN(c3cncc(-c4cc(C)cc(C)c4)n3)CC2)cc1OC [compound 170, 4-(3,4-Dimethoxy-phenyl)-6′-(3,5-dimethyl-phenyl)-3,4,5,6-tetrahydro-2H-[1,2′]bipyrazinyl] |
| 10 to 100 | – | COc1ccc(N2CCN(c3cncc(-c4cccc(OC)c4OC)n3)CC2)cc1OC [compound 171, 4-(3,4-Dimethoxy-phenyl)-6′-(2,3-dimethoxy-phenyl)-3,4,5,6-tetrahydro-2H-[1,2′]bipyrazinyl] |
| 1 to 10 | – | COc1ccc(N2CCN(c3cncc(-c4ccc(C(F)(F)F)cc4)n3)CC2)cc1OC [compound 172, 4-(3,4-Dimethoxy-phenyl)-6′-(4-trifluoromethyl-phenyl)-3,4,5,6-tetrahydro-2H-[1,2′]bipyrazinyl] |
| 10 to 100 | – | COc1ccc(N2CCN(c3cncc(-c4cccc(C#N)c4)n3)CC2)cc1OC [compound 173, 3-[4-(3,4-Dimethoxy-phenyl)-3,4,5,6-tetrahydro-2H-[1,2′]bipyrazinyl-6′-yl]-benzonitrile] |
| 10 to 100 | – | COc1ccc(N2CCN(c3cncc(-c4ccccc4Oc4ccccc4)n3)CC2)cc1OC [compound 174, 4-(3,4-Dimethoxy-phenyl)-6′-(2-phenoxy-phenyl)-3,4,5,6-tetrahydro-2H-[1,2′]bipyrazinyl] |
| 10 to 100 | – | CCOc1ccccc1-c1cncc(N2CCN(c3ccc(C)cc3)CC2)n1 [compound 175, 6′-(2-Ethoxy-phenyl)-4-p-tolyl-3,4,5,6-tetrahydro-2H-[1,2′]bipyrazinyl] |
| 10 to 100 | – | Cc1ccc(N2CCN(c3cncc(-c4ccc(N(C)C)cc4)n3)CC2)cc1 [compound 176, Dimethyl-[4-(4-p-tolyl-3,4,5,6-tetrahydro-2H-[1,2′]bipyrazinyl-6′-yl)-phenyl]-amine] |
| 10 to 100 | – | Cc1ccc(N2CCN(c3cncc(-c4cc(C)cc(C)c4)n3)CC2)cc1 [compound 177, 6′-(3,5-Dimethyl-phenyl)-4-p-tolyl-3,4,5,6-tetrahydro-2H-[1,2′]bipyrazinyl] |
| 1 to 10 | – | Cc1ccc(N2CCN(c3cncc(-c4ccc(C(F)(F)F)cc4)n3)CC2)cc1 [compound 178, 4-p-Tolyl-6′-(4-trifluoromethyl-phenyl)-3,4,5,6-tetrahydro-2H-[1,2′]bipyrazinyl] |
| 10 to 100 | – | Cc1cc(C)cc(-c2cncc(N3CCN(c4ccc(F)cc4)CC3)n2)c1 [compound 179, 6′-(3,5-Dimethyl-phenyl)-4-(4-fluoro-phenyl)-3,4,5,6-tetrahydro-2H-[1,2′]bipyrazinyl] |
| 1 to 10 | – | Fc1ccc(N2CCN(c3cncc(-c4ccc(C(F)(F)F)cc4)n3)CC2)cc1 [compound 180, 4-(4-Fluoro-phenyl)-6′-(4-trifluoromethyl-phenyl)-3,4,5,6-tetrahydro-2H-[1,2′]bipyrazinyl] |
| 10 to 100 | – | Fc1ccc(N2CCN(c3cncc(-c4cccc(F)c4)n3)CC2)cc1 [compound 181, 4-(4-Fluoro-phenyl)-6′-(3-fluoro-phenyl)-3,4,5,6-tetrahydro-2H-[1,2′]bipyrazinyl] |
| 10 to 100 | – | CN(C)c1ccc(-c2cncc(N3CCN(c4cccc(Cl)c4)CC3)n2)cc1 [compound 182, {4-[4-(3-Chloro-phenyl)-3,4,5,6-tetrahydro-2H-[1,2′]bipyrazinyl-6′-yl]-phenyl}-dimethyl-amine] |
| 10 to 100 | – | COc1cccc(-c2cncc(N3CCN(c4cccc(Cl)c4)CC3)n2)c1OC [compound 183, 4-(3-Chloro-phenyl)-6′-(2,3-dimethoxy-phenyl)-3,4,5,6-tetrahydro-2H-[1,2′]bipyrazinyl] |
| 10 to 100 | – | FC(F)(F)c1ccc(-c2cncc(N3CCN(c4cccc(Cl)c4)CC3)n2)cc1 [compound 184, 4-(3-Chloro-phenyl)-6′-(4-trifluoromethyl-phenyl)-3,4,5,6-tetrahydro-2H-[1,2′]bipyrazinyl] |
| 10 to 100 | – | Clc1cccc(N2CCN(c3cncc(-c4ccccc4Oc4ccccc4)n3)CC2)c1 [compound 185, 4-(3-Chloro-phenyl)-6′-(2-phenoxy-phenyl)-3,4,5,6-tetrahydro-2H-[1,2′]bipyrazinyl] |
| 10 to 100 | – | COc1ccccc1N1CCN(c2cncc(-c3ccc(N(C)C)cc3)n2)CC1 [compound 186, {4-[4-(2-Methoxy-phenyl)-3,4,5,6-tetrahydro-2H-[1,2′]bipyrazinyl-6′-yl]-phenyl}-dimethyl-amine] |
| 10 to 100 | – | COc1ccc2cc(-c3cncc(N4CCN(c5ccccc5OC)CC4)n3)ccc2c1 [compound 187, 6′-(6-Methoxy-naphthalen-2-yl)-4-(2-methoxy-phenyl)-3,4,5,6-tetrahydro-2H-[1,2′]bipyrazinyl] |
| 10 to 100 | – | COc1ccccc1N1CCN(c2cncc(-c3ccc(C(F)(F)F)cc3)n2)CC1 [compound 188, 4-(2-Methoxy-phenyl)-6′-(4-trifluoromethyl-phenyl)-3,4,5,6-tetrahydro-2H-[1,2′]bipyrazinyl] |
| 10 to 100 | – | c1ccc(Oc2ccc(-c3cncc(N4CCN(c5ccccc5)CC4)n3)cc2)cc1 [compound 189, 6′-(4-Phenoxy-phenyl)-4-phenyl-3,4,5,6-tetrahydro-2H-[1,2′]bipyrazinyl] |

| IC50 [1] [µM] | IC50 [2] [µM] | Structure (SMILES) |
| --- | --- | --- |
| 1 to 10 | – | CN(C)c1ccc(-c2cncc(N3CCN(c4ccccc4)CC3)n2)cc1 [compound 190, Dimethyl-[4-(4-phenyl-3,4,5,6-tetrahydro-2H-[1,2′]bipyrazinyl-6′-yl)-phenyl]-amine] |
| 10 to 100 | – | FC(F)(F)c1cc(-c2cncc(N3CCN(c4ccccc4)CC3)n2)cc(C(F)(F)F)c1 [compound 191, 6′-(3,5-Bis-trifluoromethyl-phenyl)-4-phenyl-3,4,5,6-tetrahydro-2H-[1,2′]bipyrazinyl] |
| 10 to 100 | – | Cc1cc(C)cc(-c2cncc(N3CCN(c4ccccc4)CC3)n2)c1 [compound 192, 6′-(3,5-Dimethyl-phenyl)-4-phenyl-3,4,5,6-tetrahydro-2H-[1,2′]bipyrazinyl] |
| 1 to 10 | – | FC(F)(F)c1ccc(-c2cncc(N3CCN(c4ccccc4)CC3)n2)cc1 [compound 193, 4-Phenyl-6′-(4-trifluoromethyl-phenyl)-3,4,5,6-tetrahydro-2H-[1,2′]bipyrazinyl] |
| 10 to 100 | – | Fc1cccc(-c2cncc(N3CCN(c4ccccc4)CC3)n2)c1 [compound 194, 6′-(3-Fluoro-phenyl)-4-phenyl-3,4,5,6-tetrahydro-2H-[1,2′]bipyrazinyl] |
| 1 to 10 | – | CN(C)c1ccc(-c2cncc(N3CCN(c4ccccc4F)CC3)n2)cc1 [compound 195, {4-[4-(2-Fluoro-phenyl)-3,4,5,6-tetrahydro-2H-[1,2′]bipyrazinyl-6′-yl]-phenyl}-dimethyl-amine] |
| 10 to 100 | – | Fc1ccccc1N1CCN(c2cncc(-c3cc(C(F)(F)F)cc(C(F)(F)F)c3)n2)CC1 [compound 196, 6′-(3,5-Bis-trifluoromethyl-phenyl)-4-(2-fluoro-phenyl)-3,4,5,6-tetrahydro-2H-[1,2′]bipyrazinyl] |
| – | 1 to 10 | Fc1ccccc1N1CCN(c2cncc(-c3ccc(C(F)(F)F)cc3)n2)CC1 [compound 197, 4-(2-Fluoro-phenyl)-6′-(4-trifluoromethyl-phenyl)-3,4,5,6-tetrahydro-2H-[1,2′]bipyrazinyl] |
| – | 10 to 100 | Fc1cccc(-c2cncc(N3CCN(c4ccccc4F)CC3)n2)c1 [compound 198, 4-(2-Fluoro-phenyl)-6′-(3-fluoro-phenyl)-3,4,5,6-tetrahydro-2H-[1,2′]bipyrazinyl] |
| – | 1 to 10 | Fc1ccc(N2CCN(c3cncc(-c4ccc5ccccc5c4)n3)CC2)c(F)c1 [compound 199, 4-(2,4-Difluoro-phenyl)-6′-naphthalen-2-yl-3,4,5,6-tetrahydro-2H-[1,2′]bipyrazinyl] |
| – | 10 to 100 | OCc1ccc(-c2cncc(N3CCN(c4ccc(F)cc4F)CC3)n2)cc1 [compound 200, {4-[4-(2,4-Difluoro-phenyl)-3,4,5,6-tetrahydro-2H-[1,2′]bipyrazinyl-6′-yl]-phenyl}-methanol] |
| – | 1 to 10 | Fc1ccc(N2CCN(c3cncc(-c4ccoc4)n3)CC2)c(F)c1 [compound 201, 4-(2,4-Difluoro-phenyl)-6′-furan-3-yl-3,4,5,6-tetrahydro-2H-[1,2′]bipyrazinyl] |
| – | 10 to 100 | OCc1ccccc1-c1cncc(N2CCN(c3ccc(F)cc3F)CC2)n1 [compound 202, {2-[4-(2,4-Difluoro-phenyl)-3,4,5,6-tetrahydro-2H-[1,2′]bipyrazinyl-6′-yl]-phenyl}-methanol] |
| – | 10 to 100 | CCOc1ccc(-c2cncc(N3CCN(c4ccc(F)cc4F)CC3)n2)cc1 [compound 203, 4-(2,4-Difluoro-phenyl)-6′-(4-ethoxy-phenyl)-3,4,5,6-tetrahydro-2H-[1,2′]bipyrazinyl] |
| – | 10 to 100 | CC(=O)c1ccc(N2CCN(c3cncc(-c4ccc(C(C)(C)C)cc4)n3)CC2)cc1 [compound 204, 1-{4-[6′-(4-tert-Butyl-phenyl)-2,3,5,6-tetrahydro-[1,2′]bipyrazinyl-4-yl]-phenyl}-ethanone] |
| – | 1 to 10 | CC(=O)c1ccc(N2CCN(c3cncc(-c4ccoc4)n3)CC2)cc1 [compound 205, 1-[4-(6′-Furan-3-yl-2,3,5,6-tetrahydro-[1,2′]bipyrazinyl-4-yl)-phenyl]-ethanone] |
| – | 1 to 10 | COc1ccc(-c2cncc(N3CCN(c4ccc(C(C)=O)cc4)CC3)n2)cc1F [compound 206, 1-{4-[6′-(3-Fluoro-4-methoxy-phenyl)-2,3,5,6-tetrahydro-[1,2′]bipyrazinyl-4-yl]-phenyl}-ethanone] |
| – | 10 to 100 | CCOc1ccc(-c2cncc(N3CCN(c4ccc(C(C)=O)cc4)CC3)n2)cc1 [compound 207, 1-{4-[6′-(4-Ethoxy-phenyl)-2,3,5,6-tetrahydro-[1,2′]bipyrazinyl-4-yl]-phenyl}-ethanone] |
| – | 1 to 10 | CN(C)c1ccc(-c2cncc(N3CCN(c4ccc(F)cc4F)CC3)n2)cc1 [compound 208] |
